Assay results as given in patent publication US20170046476A1, “SYSTEMS, APPARATUS, AND METHODS FOR ANALYZING AND PREDICTING CELLULAR PATHWAYS” (priority 2015, published 2017).

Tested on: STHdh Q111 cells
Test: Multiparameter high content imaging for the analysis of cell apoptosis (calcein-AM / propidium iodide / Hoechst)
Assay type: cell-based, mouse
Conditions: for apoptosis / percentage of dead cells (propidium iodide-positive cells): STHdh Q111 cells treated with FTY720-P vs untreated (vehicle), 24 hours, serum-free medium, P-value=7.98×10^−5, two-sided student t-test, two independent experiments, twenty replicates each
Text: FIG. 16B is a bar plot comparing percentages of dead cells in STHdh Q111 cells not treated with an analogue of S1P (FTY720-P) to STHdh Q111 cells treated with FTY720-P in accordance with some embodiments. […] In contrast, this approach inferred the underlying network of sphingolipid dysregulation and the role of S1P in diseased cells without any prior assumptions.
FIG. 17 is a series of images illustrating cell viability, morphology, and shape in accordance with some embodiments. Images 1702, 1704, and 1706 show STHdh Q7 cells, STHdh Q111 cells, and STHdh Q111 cells treated with FTY720-P, respectively, following treatment with calcein to detect viable cells and monitor changes in cell shape and morphology. Images 1708, 1710, and 1712 show STHdh Q7 cells, STHdh Q111 cells, and STHdh Q111 cells treated with FTY720-P, respectively, following treatment with propidium iodide, which stains late apoptotic cells with damaged membranes. As shown, hidden components inferred by using the described approach rescue diseased cells.
According to some embodiments, STHdhQ7/Q7 and STHdhQ111/Q111 striatal cells were trypsinized, harvested in pre-warmed growth medium and quantified using an automated cell counter (available from, e.g., Countess II, Life Technologies). Six thousand cells per well were seeded in sterile, black 96-well microplates with flat, clear bottom. After 24 hours, the complete medium was removed and replaced with phenol red- and serum-free medium containing either FTY720 phosphate (available from Sigma-Aldrich) or vehicle (e.g., DMSO, available from Sigma-Aldrich) and cells were incubated for 24 hours at 33° C. A multiple staining solution containing 1 μg/ml calcein-AM, 2 μg/ml propidium iodide and 1.5 μg/ml […] (all available from Life Technologies) was added to detect and quantify live, dead, and total cells, respectively. After 20 minutes in incubation, a Cellomics Arrayscan Platform (available from Thermo Scientific) was used for imaging acquisition. […] Cell loss was expressed as the percentage of propidium iodide-positive cells. […]

## FTY720 phosphate [FTY720-P]
  apoptosis / percentage of dead cells (propidium iodide-positive cells): significantly decreasing apoptosis
Listed as Phosphorylated FTY720
  apoptosis / percentage of dead cells (propidium iodide-positive cells): significantly decrease apoptosis
STHdh cell line model of Huntington's disease, summary statement
  effect of treating diseased cells (neuroprotection): neuroprotective effects
